How the values were obtained:
[1] = Cytotoxicity test (Cell Counting Kit-8); type: cell-based; conditions: human, Firefly luciferase HCV replicon cells (3-1); Cell Counting Kit-8, absorbance 450 nm, after 3 days culture with compound
Procedure: (§1) Firefly luciferase HCV replicon cells (3-1) were suspended in Dulbecco's MEM (Gibco Cat. No. 10569-010) containing 5% fetal calf serum (Hyclone Cat. No. SH30071.03) and inoculated into a 96-well plate at 5000 cells/well followed by culturing overnight at 5% CO2 and 37° C. After about 20 hours, 10 μl of a diluted compound was added to each well followed by additional culturing for 3 days. Two series of the assay plates were prepared, and assay was conducted using white plates for one series while using clear plates for the other series. Following completion of culturing, the white plates were used with the Steady-Glo Luciferase Assay System (Promega Cat. No. E2520). More specifically, 100 μl of reagent was placed in each well and after mixing 3 to 4 times with a pipette and allowing to stand for 5 minutes, luminescence was measured with the 1450 MicroBeta TRILUX (WALLAC). The value in the absence of cell addition was used to indicate the background value, and that value was subtracted from all values to calculate the IC50 value (concentration resulting in 50% inhibition) of the drug based on 0% inhibition for the value obtained in the absence of drug addition.
(§2) The Cell Counting Kit-8 (Dojindo Cat. No. CK04) was used for measurement of cytotoxicity. More specifically, 10 μl of the Cell Counting Kit-8 was added to the clear plates followed by incubating at 37° C. for 30 to 60 minutes. Absorbance at a wavelength of 450 nm and control wavelength of 630 nm was measured with a 96-well plate reader. The value obtained in the absence of cell addition was used as a background value, and that value was subtracted from all values to calculate the CC50 value (concentration resulting in 50% cell inhibition) of the drug based on 0% inhibition for the value obtained in the absence of drug addition.

[2] = tested on: Firefly luciferase HCV replicon cells (3-1); assay: Replicon assay (firefly luciferase HCV replicon); type: cell-based; conditions: Hepatitis C virus, 72 h; luciferase luminescence after 3 days culture with compound, Huh7-derived replicon cells
Procedure: A construct was prepared in which luciferase gene derived from firefly was inserted as a reporter gene in HCV-RNA to assay the number of copies of HCV-RNA. The luciferase gene was inserted in a form that fuses with the neomycin resistance gene directly below IRES (Internal Ribosome Entry Site) of HCV gene in accordance with the method of Krieger, et al. (J. Virol. 75: 4614). After synthesizing the RNA in vitro, it was introduced into Huh7 cells by electroporation followed by isolation as G418 resistant clone.
as §1

[3] = tested on: Candida albicans; conditions: known from WO98/56755; cited from earlier work
[4] = tested on: Cryptococcus neoformans; conditions: known from WO98/56755; cited from earlier work
[5] = tested on: immune reactions; conditions: known from WO98/56755; cited from earlier work
[6] = tested on: Firefly luciferase HCV replicon cells (3-1); assay: Cytotoxicity test (Cell Counting Kit-8); type: cell-based; conditions: Cell Counting Kit-8, absorbance 450 nm, after 3 days culture with compound
Procedure: as §1, §2

| SMILES | CC50 at 3 days [1] | IC50 [2] | other results |
| --- | --- | --- | --- |
| CCCCCCCCCCCCCC/C=C/[C@H](C(=O)N[C@@H](Cc1ccc(OCC=C(C)C)cc1)C(=O)O)[C@@](O)(CC(=O)O)C(=O)O (mixture of isomers) [Compound 13] | > 50000 nM | 100 nM |  |
| CCCCCCCC(=O)CCCCCC/C=C/[C@H](C(=O)N[C@@H](Cc1ccc(OCC=C(C)C)cc1)C(=O)O)[C@@](O)(CC(=O)O)C(=O)O [Compound 1] | > 5000 nM | 2 nM | antimicrobial activity against Candida albicans [3]: antimicrobial activity; antimicrobial activity against Cryptococcus neoformans [4]: antimicrobial activity; effects that inhibit immune reactions [5]: inhibit immune reactions |
| CCCCCCCC(=O)CCCCCC/C=C/[C@H](C(=O)N[C@@H](Cc1ccc(OCC=C(C)C)cc1)C(=O)O)[C@@](O)(CC(=O)OC)C(=O)O [Compound 2] | > 1000 nM | 128 nM |  |
| CCCCCCCC(=O)CCCCCC/C=C/[C@H](C(=O)N[C@@H](Cc1ccc(OCC=C(C)C)cc1)C(=O)OC)[C@@](O)(CC(=O)OC)C(=O)O [Compound 3] | > 1000 nM | 76 nM |  |
| CCCCCCC(O)C(=O)CCCCCC/C=C/[C@H](C(=O)N[C@@H](Cc1ccc(O)cc1)C(=O)O)[C@@](O)(CC(=O)O)C(=O)O (stereo partly shown) [Compound 4] | > 1000 nM | 103 nM |  |
| CCCCCCCC(=O)CCCCCC/C=C/[C@H](C(=O)N[C@@H](Cc1c[nH]c2ccccc12)C(=O)O)[C@@](O)(CC(=O)O)C(=O)O [Compound 5] | > 1000 nM | 82 nM |  |
| CCCCCCC(O)C(=O)CCCCCC/C=C/[C@H](C(=O)N[C@@H](Cc1ccc(OCC=C(C)C)cc1)C(=O)O)[C@@](O)(CC(=O)O)C(=O)O (stereo partly shown) [Compound 6] | > 1000 nM | 7 nM |  |
| CCCCCCCC(=O)CCCCCC/C=C/[C@H](C(=O)N[C@@H](Cc1ccc(OCCC(C)C)cc1)C(=O)O)[C@@](O)(CC(=O)O)C(=O)O [Compound 7] | > 5000 nM | 2 nM |  |
| CCCCCCCC(O)CCCCCC/C=C/[C@H](C(=O)N[C@@H](Cc1ccc(OCC=C(C)C)cc1)C(=O)O)[C@@](O)(CC(=O)O)C(=O)O (stereo partly shown) [Compound 8] | > 5000 nM | 5 nM |  |
| CCCCCCCC(=O)CCCCCC/C=C/[C@H](C(=O)N[C@@H](Cc1ccc(O)cc1)C(=O)O)[C@@](O)(CC(=O)O)C(=O)O [Compound 9] | > 5000 nM | 20 nM |  |
| CCCCCCCC(=O)CCCCCCCC[C@H](C(=O)N[C@@H](Cc1ccc(O)cc1)C(=O)O)[C@@](O)(CC(=O)O)C(=O)O [Compound 10] | > 50000 nM | 245 nM |  |
| CCCCCCCC(=O)CCCCCC/C=C/[C@H](C(=O)N[C@@H](Cc1ccc(OCC=C(C)C)cc1)C(N)=O)[C@@](O)(CC(N)=O)C(N)=O [Compound 11] | > 5000 nM | 262 nM |  |
| CCCCCCCC(=O)CCCCCCCC[C@H](C(=O)N[C@@H](Cc1ccc(OCCC(C)C)cc1)C(=O)O)[C@@](O)(CC(=O)O)C(=O)O [Compound 12] | > 5000 nM | 72 nM |  |
| CCCCCCC/C(CCCCCC/C=C/[C@H](C(=O)N[C@@H](Cc1ccc(OCC=C(C)C)cc1)C(=O)O)[C@@](O)(CC(=O)O)C(=O)O)=N/OCCN [Compound 14] | 22000 nM | 20 nM |  |
| CCCCCCCC(CCCCCC/C=C/[C@H](C(=O)N[C@@H](Cc1ccc(OCC=C(C)C)cc1)C(=O)O)[C@@](O)(CC(=O)O)C(=O)O)=NOC [Compound 15] | > 50000 nM | 20 nM |  |
| CC#CCOc1ccc(C[C@H](NC(=O)[C@@H](/C=C/CCCCCCC(=O)CCCCCCC)[C@@](O)(CC(=O)O)C(=O)O)C(=O)O)cc1 [Compound 21] |  |  | CC50 [6]: > 5000 nM |
| CCCCCCCC(=O)CCCCCC/C=C/[C@H](C(=O)N[C@@H](Cc1ccc(OC)c(OC)c1)C(=O)O)[C@@](O)(CC(=O)O)C(=O)O [Compound 22] |  |  | CC50 [6]: > 1000 nM |
| CCCCCCCC(=O)CCCCCC/C=C/[C@H](C(=O)N[C@@H](Cc1ccc(OCCCC)cc1)C(=O)O)[C@@](O)(CC(=O)O)C(=O)O [Compound 23] | > 1000 nM | 1 nM |  |
| CCCCCCCC(=O)CCCCCC/C=C/[C@H](C(=O)N[C@@H](Cc1ccc(OCCC)cc1)C(=O)O)[C@@](O)(CC(=O)O)C(=O)O [Compound 24] | > 1000 nM | 2 nM |  |
| C=CCOc1ccc(C[C@H](NC(=O)[C@@H](/C=C/CCCCCCC(=O)CCCCCCC)[C@@](O)(CC(=O)O)C(=O)O)C(=O)O)cc1 [Compound 25] | > 1000 nM | 1 nM |  |
| CCCCCCCC(=O)CCCCCC/C=C/[C@H](C(=O)N[C@@H](Cc1ccc(OC)cc1)C(=O)O)[C@@](O)(CC(=O)O)C(=O)O [Compound 26] | > 1000 nM | 3 nM |  |
